Measured values taken from publication PMC6778101 (Nature Communications, 2019).
“Also recorded” adds a separate entry of the source. Ends that are not written are not given here. Peptide text beside a SMILES is read from it.

Columns and labels:
[1] = system: E. coli ATCC 25922; format: cell-based, Escherichia coli; details: Escherichia coli ATCC 25922; broth dilution, 37 °C, 18 h
Method: Unless otherwise indicated, we used E. coli K-12 BW25113 in all high-throughput experiments. To investigate the impact of mutation rate on evolution of AMP resistance, we initiated laboratory evolution with a mutator strain E. coli mutD5 that carries mutations in the dnaQ gene (L73W and A164V).
(§1) MICs were determined using a standard serial broth dilution technique. Briefly, 11-step serial dilutions were prepared in 96-well microtiter plates with three replicates per strain and antimicrobial compound. Each experiment was repeated at least twice. 5 × 10^5 cells/mL were inoculated into each well, and the plates were incubated at 30 °C in case of E. coli K-12 BW25113, and its antibiotic and AMP-adapted lines, or 37 °C in case of the other bacterial species. Plates were shaken at 300 r.p.m. during incubation for 24 and 18 h, respectively. Cell growth was monitored by measuring the optical density (OD600 value, Biotek Synergy 2 microplate reader was used for this purpose). […] Relative MIC was calculated as follows: MICrelative = MICevolved/MICcontrol.

[2] = system: 38 AMP-adapted E. coli K-12 BW25113 lines; assay: Cross-resistance of AMP-resistant lines (relative MIC); format: cell-based, Escherichia coli; details: for Relative MIC (MICevolved / MICcontrol): >1 cross-resistance, <1 collateral sensitivity
Text: Next, we have explored whether laboratory evolved AMP resistance provide any cross-resistance to AMPs which appear to be less prone to resistance. […] We have measured the changes in susceptibilities of these strains to the AMPs (PLEU, PGLA, R8, IND, TPII, and CP1) towards which resistance evolution was limited, as well as to the human peptide LL37. LL37 is a cathelicidin-derived AMP present throughout the human body with critical defensive roles. Cross-resistance was defined as a minimum of twofold increase in resistance level.
as §1

[3] = system: S. enterica LT2; assay: Laboratory evolution of resistance, MIC fold change of adapted lines; format: cell-based, Salmonella enterica subsp. enterica serovar Typhimurium; details: Salmonella enterica serovar Typhimurium LT2; parallel line 1 of 10
Text: The tested pathogens initially sensitive to the AMPs and the antibiotics included Escherichia coli (ATCC® 25922™) (abbreviated as E. coli ATCC 25922), Salmonella enterica subsp. enterica serovar Typhimurium LT2 (abbreviated as S. enterica LT2), Klebsiella pneumoniae subsp. pneumoniae (Schroeter) Trevisan (ATCC® 10031™) (abbreviated as K. pneumoniae ATCC 10031) and Acinetobacter baumannii Bouvet and Grimont (ATCC® 17978™) (abbreviated as A. baumannii ATCC 17978).
The evolutionary protocol was designed to avoid population extinction and to ensure that populations with the highest level of resistance were propagated further. Starting with a subinhibitory drug concentration (Supplementary Data 8), resulting in ~50% growth inhibition, 10 parallel populations per drug were allowed to grow in Minimal Salts medium for 72 h and 300 r.p.m. […] Prior to each transfer, cell growth was monitored by measuring the optical density at 600 nm (OD600 value, Biotek Synergy 2 microplate reader). […]
MICs were determined using a standard serial broth dilution technique. […] Cell growth was monitored by measuring the optical density (OD600 value, Biotek Synergy 2 microplate reader was used for this purpose). […] Relative MIC was calculated as follows: MICrelative = MICevolved/MICcontrol.

Compound: SWLSKTAKKLENSAKKRISEGIAIAIQGGPR [CP1, Cecropin P1]
- MIC [1]: 1.2 µM

Compound: CC[C@H](C)[C@@H]1NC(=O)CNC(=O)[C@H](CCCNC(=N)N)NC(=O)[C@H](Cc2ccc(O)cc2)NC(=O)[C@@H]2CSSC[C@H](NC1=O)C(=O)N[C@@H](Cc1ccc(O)cc1)C(=O)N[C@@H](CCCNC(=N)N)C(=O)N[C@@H](CCCCN)C(=O)N[C@H](C(=O)N[C@@H](CCCNC(=N)N)C(N)=O)CSSC[C@H](NC(=O)[C@H](Cc1c[nH]c3ccccc13)NC(=O)[C@@H](N)CCCNC(=N)N)C(=O)N[C@@H](Cc1ccccc1)C(=O)N[C@@H](CCCNC(=N)N)C(=O)N[C@@H](C(C)C)C(=O)N2 [TPII, tachyplesin II] (HELM PEPTIDE1{R.W.C.F.R.V.C.Y.R.G.I.C.Y.R.K.C.R.[am]}$PEPTIDE1,PEPTIDE1,3:R3-16:R3|PEPTIDE1,PEPTIDE1,7:R3-12:R3$$$V2.0; N-terminus and C-terminus assumed; bridges inferred)
- Fold change in minimum inhibitory concentration (MIC) ([2]; AMP-adapted line BAC5_3): 1
- Relative MIC (MICevolved / MICcontrol) ([2]; AMP-adapted line BAC5_3): 1
- Fold change in minimum inhibitory concentration (MIC) ([2]; AMP-adapted line BAC5_5): 1
- Relative MIC (MICevolved / MICcontrol) ([2]; AMP-adapted line BAC5_5): 1
- Fold change in minimum inhibitory concentration (MIC) ([2]; AMP-adapted line BAC5_7): 1.1
- Relative MIC (MICevolved / MICcontrol) ([2]; AMP-adapted line BAC5_7): 1.1
- Fold change in minimum inhibitory concentration (MIC) ([2]; AMP-adapted line BAC5_10): 1.1
- Relative MIC (MICevolved / MICcontrol) ([2]; AMP-adapted line BAC5_10): 1.1
- Fold change in minimum inhibitory concentration (MIC) ([2]; AMP-adapted line CAP18_2): 1.1
- Relative MIC (MICevolved / MICcontrol) ([2]; AMP-adapted line CAP18_2): 1.1
- Fold change in minimum inhibitory concentration (MIC) ([2]; AMP-adapted line CAP18_5): 1
- Relative MIC (MICevolved / MICcontrol) ([2]; AMP-adapted line CAP18_5): 1
- Fold change in minimum inhibitory concentration (MIC) ([2]; AMP-adapted line CAP18_6): 1
- Relative MIC (MICevolved / MICcontrol) ([2]; AMP-adapted line CAP18_6): 1
- Fold change in minimum inhibitory concentration (MIC) ([2]; AMP-adapted line CAP18_8): 1.1
- Relative MIC (MICevolved / MICcontrol) ([2]; AMP-adapted line CAP18_8): 1.1
- Fold change in minimum inhibitory concentration (MIC) ([2]; AMP-adapted line CAP18_10): 1
- Relative MIC (MICevolved / MICcontrol) ([2]; AMP-adapted line CAP18_10): 1
- Fold change in minimum inhibitory concentration (MIC) ([2]; AMP-adapted line HBD3_3): 1.2
- Relative MIC (MICevolved / MICcontrol) ([2]; AMP-adapted line HBD3_3): 1.2
- Fold change in minimum inhibitory concentration (MIC) ([2]; AMP-adapted line HBD3_6): 1.2
- Relative MIC (MICevolved / MICcontrol) ([2]; AMP-adapted line HBD3_6): 1.2
- Fold change in minimum inhibitory concentration (MIC) ([2]; AMP-adapted line HBD3_8): 1.2
- Relative MIC (MICevolved / MICcontrol) ([2]; AMP-adapted line HBD3_8): 1.2
- Fold change in minimum inhibitory concentration (MIC) ([2]; AMP-adapted line HBD3_10): 1.2
- Relative MIC (MICevolved / MICcontrol) ([2]; AMP-adapted line HBD3_10): 1.2
- Fold change in minimum inhibitory concentration (MIC) ([2]; AMP-adapted line LL37_1): 1.1
- Relative MIC (MICevolved / MICcontrol) ([2]; AMP-adapted line LL37_1): 1.1
- Fold change in minimum inhibitory concentration (MIC) ([2]; AMP-adapted line LL37_3): 1.1
- Relative MIC (MICevolved / MICcontrol) ([2]; AMP-adapted line LL37_3): 1.1
- Fold change in minimum inhibitory concentration (MIC) ([2]; AMP-adapted line LL37_6): 1
- Relative MIC (MICevolved / MICcontrol) ([2]; AMP-adapted line LL37_6): 1
- Fold change in minimum inhibitory concentration (MIC) ([2]; AMP-adapted line LL37_7): 1
- Relative MIC (MICevolved / MICcontrol) ([2]; AMP-adapted line LL37_7): 1
- Fold change in minimum inhibitory concentration (MIC) ([2]; AMP-adapted line LL37_10): 1
- Relative MIC (MICevolved / MICcontrol) ([2]; AMP-adapted line LL37_10): 1
- Fold change in minimum inhibitory concentration (MIC) ([2]; AMP-adapted line PEX_1): 1.1
- Relative MIC (MICevolved / MICcontrol) ([2]; AMP-adapted line PEX_1): 1.1
- Fold change in minimum inhibitory concentration (MIC) ([2]; AMP-adapted line PEX_4): 1.2
- Relative MIC (MICevolved / MICcontrol) ([2]; AMP-adapted line PEX_4): 1.2
- Fold change in minimum inhibitory concentration (MIC) ([2]; AMP-adapted line PEX_5): 1.1
- Relative MIC (MICevolved / MICcontrol) ([2]; AMP-adapted line PEX_5): 1.1
- Fold change in minimum inhibitory concentration (MIC) ([2]; AMP-adapted line PEX_6): 1
- Relative MIC (MICevolved / MICcontrol) ([2]; AMP-adapted line PEX_6): 1
- Fold change in minimum inhibitory concentration (MIC) ([2]; AMP-adapted line PEX_7): 1
- Relative MIC (MICevolved / MICcontrol) ([2]; AMP-adapted line PEX_7): 1
- Fold change in minimum inhibitory concentration (MIC) ([2]; AMP-adapted line PR39_1): 1
- Relative MIC (MICevolved / MICcontrol) ([2]; AMP-adapted line PR39_1): 1
- Fold change in minimum inhibitory concentration (MIC) ([2]; AMP-adapted line PR39_2): 0.9
- Relative MIC (MICevolved / MICcontrol) ([2]; AMP-adapted line PR39_2): 0.9
- Fold change in minimum inhibitory concentration (MIC) ([2]; AMP-adapted line PR39_5): 0.9
- Relative MIC (MICevolved / MICcontrol) ([2]; AMP-adapted line PR39_5): 0.9
- Fold change in minimum inhibitory concentration (MIC) ([2]; AMP-adapted line PR39_7): 0.9
- Relative MIC (MICevolved / MICcontrol) ([2]; AMP-adapted line PR39_7): 0.9
- Fold change in minimum inhibitory concentration (MIC) ([2]; AMP-adapted line PR39_10): 0.9
- Relative MIC (MICevolved / MICcontrol) ([2]; AMP-adapted line PR39_10): 0.9
- Fold change in minimum inhibitory concentration (MIC) ([2]; AMP-adapted line PROA_2): 1.1
- Relative MIC (MICevolved / MICcontrol) ([2]; AMP-adapted line PROA_2): 1.1
- Fold change in minimum inhibitory concentration (MIC) ([2]; AMP-adapted line PROA_3): 0.8
- Relative MIC (MICevolved / MICcontrol) ([2]; AMP-adapted line PROA_3): 0.8
- Fold change in minimum inhibitory concentration (MIC) ([2]; AMP-adapted line PROA_7): 1
- Relative MIC (MICevolved / MICcontrol) ([2]; AMP-adapted line PROA_7): 1
- Fold change in minimum inhibitory concentration (MIC) ([2]; AMP-adapted line PROA_8): 1
- Relative MIC (MICevolved / MICcontrol) ([2]; AMP-adapted line PROA_8): 1
- Fold change in minimum inhibitory concentration (MIC) ([2]; AMP-adapted line PROA_9): 1.1
- Relative MIC (MICevolved / MICcontrol) ([2]; AMP-adapted line PROA_9): 1.1
- Fold change in minimum inhibitory concentration (MIC) ([2]; AMP-adapted line PXB_2): 1.1
- Relative MIC (MICevolved / MICcontrol) ([2]; AMP-adapted line PXB_2): 1.1
- Fold change in minimum inhibitory concentration (MIC) ([2]; AMP-adapted line PXB_5): 1
- Relative MIC (MICevolved / MICcontrol) ([2]; AMP-adapted line PXB_5): 1
- Fold change in minimum inhibitory concentration (MIC) ([2]; AMP-adapted line PXB_6): 1.1
- Relative MIC (MICevolved / MICcontrol) ([2]; AMP-adapted line PXB_6): 1.1
- Fold change in minimum inhibitory concentration (MIC) ([2]; AMP-adapted line PXB_8): 1
- Relative MIC (MICevolved / MICcontrol) ([2]; AMP-adapted line PXB_8): 1
- Fold change in minimum inhibitory concentration (MIC) ([2]; AMP-adapted line PXB_10): 1.1
- Relative MIC (MICevolved / MICcontrol) ([2]; AMP-adapted line PXB_10): 1.1
- cross-resistance of the 38 AMP-resistant lines to the AMP (in words) ([2]; cross-resistance = minimum of twofold increase in resistance level): none of the 38 AMP-resistant lines displayed cross-resistance; also recorded: no cross-resistance
- MIC fold change following 20 transfers [3]: 1.0 fold
